Values quoted from earlier work, collected in patent US8124611B2, “Inhibitors of the mutant form of kit” (Novartis AG, priority 2003, dated 2012).

Target: KIT D816V mutation (Homo sapiens, UniProt P10721, D816V)
Details: D816V mutation commonly found in systemic mastocytosis

Chain of KIT D816V mutation (P10721 26-976 D816V): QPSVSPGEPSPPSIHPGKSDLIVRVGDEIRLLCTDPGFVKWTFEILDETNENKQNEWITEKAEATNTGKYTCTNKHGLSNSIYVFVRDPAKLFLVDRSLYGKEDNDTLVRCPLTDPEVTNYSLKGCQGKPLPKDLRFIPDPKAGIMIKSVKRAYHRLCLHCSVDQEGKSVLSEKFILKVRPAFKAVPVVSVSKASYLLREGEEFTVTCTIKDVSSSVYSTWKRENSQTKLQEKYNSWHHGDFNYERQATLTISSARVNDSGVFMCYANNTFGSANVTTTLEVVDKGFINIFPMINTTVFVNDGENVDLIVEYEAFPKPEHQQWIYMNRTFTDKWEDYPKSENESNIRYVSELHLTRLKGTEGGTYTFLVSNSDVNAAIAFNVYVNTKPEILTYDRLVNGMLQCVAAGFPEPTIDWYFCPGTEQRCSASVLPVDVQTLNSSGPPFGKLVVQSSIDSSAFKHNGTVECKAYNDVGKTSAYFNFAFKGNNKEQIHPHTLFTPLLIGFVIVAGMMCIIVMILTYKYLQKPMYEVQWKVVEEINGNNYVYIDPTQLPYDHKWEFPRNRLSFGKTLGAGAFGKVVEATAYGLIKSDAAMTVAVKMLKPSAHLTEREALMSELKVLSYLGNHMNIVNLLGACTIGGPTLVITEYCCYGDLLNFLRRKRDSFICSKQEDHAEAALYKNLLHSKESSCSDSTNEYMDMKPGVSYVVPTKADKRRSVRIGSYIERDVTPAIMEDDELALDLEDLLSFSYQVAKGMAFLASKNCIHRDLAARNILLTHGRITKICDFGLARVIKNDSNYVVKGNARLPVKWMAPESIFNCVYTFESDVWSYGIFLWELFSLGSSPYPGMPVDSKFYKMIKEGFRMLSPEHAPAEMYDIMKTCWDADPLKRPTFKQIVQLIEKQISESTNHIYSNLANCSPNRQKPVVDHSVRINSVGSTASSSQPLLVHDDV

activity against mutant forms of KIT: inactive or significantly less active
SMILES: Cc1ccc(NC(=O)c2ccc(CN3CCN(C)CC3)cc2)cc1Nc1nccc(-c2cccnc2)n1 [Imatinib]
